Results on one molecule are retold here after ChEMBL document CHEMBL4270493, “Recent updates on third generation EGFR inhibitors and emergence of fourth generation EGFR inhibitors to combat C797S resistance” (Eur J Med Chem, 2017).

For data set [1], the species on record is Homo sapiens. Briefly: Antitumor activity in patient with EGFR T790M mutant NSCLC assessed as objective response rate at 500 mg BID during phase 1/2 study. In kind it is functional.
For data set [2], the species on record is Homo sapiens. Briefly: Antitumor activity in patient with EGFR T790M mutant NSCLC assessed as disease control rate at 500 mg BID during phase 1/2 study. In kind it is functional.
The species entered for data set [3] is Homo sapiens. Kind of data set: Antitumor activity in patient with EGFR T790M mutant negative NSCLC assessed as overall response rate at 500 mg BID during phase 1/2 study. In kind it is functional.
The species entered for data set [4] is Homo sapiens. Kind of data set: Toxicity in patient with EGFR T790M mutant NSCLC assessed as induction of grade 3 hyperglycemia at 500 mg BID during phase 1/2 study. In kind it is organism-based. The conditions noted are these: in vivo.
For data set [5], the species on record is Homo sapiens. Briefly: Toxicity in patient with EGFR T790M mutant NSCLC assessed as induction of grade 3 QTc prolongation at 500 mg BID during phase 1/2 study. It is filed as organism-based. The conditions noted are these: in vivo.
The species entered for data set [6] is Homo sapiens. Kind of data set: Toxicity in patient with EGFR T790M mutant NSCLC assessed as drug discontinuation rate at 500 mg BID during phase 1/2 study. In kind it is organism-based. Particulars: in vivo.

Turning to `C=CC(=O)Nc1cccc(Nc2nc(Nc3ccc(N4CCN(C(C)=O)CC4)cc3OC)ncc2C(F)(F)F)c1` [ROCILETINIB], the Activity in the data set listed under Homo sapiens [1] is on record as 60%; in the data set filed under Homo sapiens [2], 90%; in the data set listed under Homo sapiens [3] it was 37%; in the data set filed under Homo sapiens [4] it was 17%; in the data set listed under Homo sapiens [5] it was 2.5%; in the data set filed under Homo sapiens [6] it was 2.5%.
